Data set [1] can be described thus: Plasma and total brain concentrations at 1 h post single oral administration to female C57BL/6 mice. It counts as in vivo. As to conditions: mouse, 10 mg/kg oral gavage. The protocol: The appropriate amount of test article was dissolved 10% dimethylacetamide (DMA)/90% (20% hydroxypropyl-β-cyclodextrin (HP-B-CD) w/v in water to obtain a final concentration of 1 mg/mL for oral dosing. Sonication, vortex, and homogenization was used as needed. Three female C57BL/6 mice aged 7-9 weeks (20-30 grams) were dosed by oral gavage 10 mg/kg solution of the test article.
Concentrations of test compounds in the plasma and brain samples (use plasma and brain homogenate standard curve for all samples appropriately) were analyzed using LC-MS/MS. Compounds having a brain-to-plasma ratio of greater than 0.2 were considered brain penetrant.

In another data set the test system is BTK in RAMOS B cells. As to the kind of experiment: Assay to determine BTK activity in RAMOS B cells (anti-IgM, FLIPR Calcium 6). The data set is classed as cell-based. As to conditions: anti-IgM EC80, calcium readout. The protocol:
On the day before assay, Ramos B cells were plated in plating medium (RPMI1640 medium containing 1% FBS and 1× pencillin-streptomycin). On the day of the assay, 2× dye solution was prepared following the manual of the FLIRP Calcium 6 Assay Kit: Dilute the dye with assay buffer (20 mM HEPES in IX HBSS, pH7.4); Add probenecid to the final concentration of 5 mM; vortex vigorously for 1-2 minutes. Cells were collected by centrifuging, and the pellet was re-suspended in plating medium. After counting, cells were re-suspended at a density of 3×10^6/ml in plating medium. Equal volume of 2× dye solution was added to the cell suspension. Cells were then plated at 20 μl/well into a 384-well poly-D-lysine coated plate. Plate was centrifuged at 1000 rpm for 3 minutes and then incubated at 37° C. for 2 hours followed by an additional 15-minute incubation at 25° C. Compounds were prepared at 3× concentration in dilution buffer (20 mM HEPES and 0.1% BSA in 1×HBSS, pH 7.4). Serially diluted compound was transferred from source plate to a 384-well compound plate by using an Echo 550 (Labcyte). 20 μl/well compound dilution buffer was added to the compound plate and mixed on plate shaker for 2 mins. 4× EC80 of Anti-IgM (Jackson ImmunoResearch) was prepared in dilution buffer and 20 μl/well was added to a new 384-well compound plate. After 60 mins of incubation at 25° C. in the dark; cell plate, compound plate containing 4×EC80 of anti-IgM and FLIPR tips were placed into FLIPR (Molecular Devices). 10 ul/well of 4×EC80 anti-IgM was transferred to the cell plate by FLIPR. Plates were read for 160 sec with 1 sec interval.

Another data set deals with T1, BTK (Homo sapiens, UniProt Q06187).
T1 construct: purchased Cama
T1 sequence (Q06187 whole entry): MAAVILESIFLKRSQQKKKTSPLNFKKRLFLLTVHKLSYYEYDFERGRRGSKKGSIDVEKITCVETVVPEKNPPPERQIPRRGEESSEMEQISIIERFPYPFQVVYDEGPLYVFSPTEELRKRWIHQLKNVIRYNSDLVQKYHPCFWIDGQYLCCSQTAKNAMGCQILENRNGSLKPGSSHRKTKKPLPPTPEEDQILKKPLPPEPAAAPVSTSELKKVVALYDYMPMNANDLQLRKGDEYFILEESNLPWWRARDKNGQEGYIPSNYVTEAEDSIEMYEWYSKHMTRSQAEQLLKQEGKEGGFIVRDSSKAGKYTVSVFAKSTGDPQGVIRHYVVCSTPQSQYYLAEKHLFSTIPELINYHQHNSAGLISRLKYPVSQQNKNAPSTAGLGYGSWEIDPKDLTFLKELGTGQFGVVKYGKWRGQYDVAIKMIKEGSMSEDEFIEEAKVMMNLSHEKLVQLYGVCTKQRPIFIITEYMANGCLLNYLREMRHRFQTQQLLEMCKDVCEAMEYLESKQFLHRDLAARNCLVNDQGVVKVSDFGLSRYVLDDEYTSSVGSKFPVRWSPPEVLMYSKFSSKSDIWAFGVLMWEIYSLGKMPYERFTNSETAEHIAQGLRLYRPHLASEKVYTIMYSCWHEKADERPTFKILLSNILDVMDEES
Description: Assay to determine activity against BTK. It counts as biochemical. As to conditions: 1 mM ATP, 2 nM BTK, 90 minutes at room temperature. The method, then:
Solutions of compounds (test or control) in DMSO were prepared at the desired concentrations, and serially diluted to 11 concentrations by 3-fold dilution in 384pp-plate using TECAN EVO200. 20 nL of stock were transferred to 384 plate using Echo550. DMSO was used as vehicle control.
(BTK was obtained from Cama; FLPeptide2 was obtained from PerkinElmer and Ibrutinib was obtained from Selleck.) 5 μL of ATP solution were added to each well, followed by addition of 15 μL of BTK solution to initiate the reaction. (Note the final volume of each well was 20 μL containing MgCl2 (10 mM), Brij-35 (0.01%), DTT (2 mM), BSA (0.05%), EGTA (1 mM), HEPE (pH7.5) (50 mM), FLPeptide (1.5 uM), ATP (1 mM) and BTK (2 nM).
The plates were incubated at room temperature for 90 minutes and then stopping buffer added (75 μL, containing 0.5 M EDTA) to terminate the reaction. Samples from each well were analyzed using EZ reader. The % remaining activity was calculated using read conversion ratio (CR) according to the equation: […]
XLFit (equation 201) was used to calculate IC50's by floating both bottom and top.

SMILES strings stand for the structures. pIC50: −log10 of the molar value. Like-named read-outs stand apart in the source and are kept apart here.

With `CC#CC(=O)N1CCC[C@H]1c1nc(-c2ccc(C(=O)Nc3ccccn3)cc2)c2c(N)nccn12` [Acalabrutinib, reference compound], the concentration at 1 h in data set [1] (brain, read-out: Mean [brain]) was found to be 4 ng/g; in data set [1] (plasma, read-out: Mean [plasma]) it was 120 ng/mL. Besides, the Kp at 1 h in data set [1] (brain/plasma, read-out: brain to plasma ratio) was found to be 0.04.
For `CC#CC(=O)N[C@H]1CCC=C(c2c(F)cc(C(N)=O)c3[nH]c4c(c23)CCC4)C1` [Compound 10-4, 8-[(5S)-5-(but-2-ynoylamino)cyclohexen-1-yl]-7-fluoro-1,2,3,4-tetrahydrocyclopenta[b]indole-5-carboxamide], the pIC50 (as a rule, the negative decadic logarithm of the IC50, by convention in mol/L) is over 8.00 in the data set on BTK in RAMOS B cells (Homo sapiens, Ramos) and over 8.00 against BTK.
Regarding `C=CC(=O)N1CCc2c(cccc2-c2ccc(C(N)=O)c3[nH]c4c(c23)CC2(CCC2)CC4)C1` [Compound 7-4, 5-(2-acryloyl-1,2,3,4-tetrahydroisoquinolin-5-yl)-1,2,4,9-tetrahydrospiro[carbazole-3,1′-cyclobutane]-8-carboxamide], the pIC50 in the data set on BTK in RAMOS B cells (Homo sapiens, Ramos) is at most 7.00; against BTK, at most 7.00.
Take `C=CC(=O)N1CCc2c(cccc2-c2c(F)cc(C(N)=O)c3[nH]c4c(c23)C[S+]([O-])CC4)C1` (single isomer, unassigned) [Compound 9-2, 9-(2-acryloyl-1,2,3,4-tetrahydroisoquinolin-5-yl)-8-fluoro-1,3,4,5-tetrahydrothiopyrano[4,3-b]indole-6-carboxamide 2-oxide]: the pIC50 in the data set with BTK in RAMOS B cells is at most 7.00; against BTK it was 7.00 to 8.00.
On the same counts, the results for `C=CC(=O)N1CCc2c(cccc2-c2c(F)cc(C(N)=O)c3[nH]c4c(c23)CCCCC4)C1` (single isomer, unassigned) [Compound 5-2, 2-fluoro-1-[2-(prop-2-enoyl)-3,4-dihydro-1H-isoquinolin-5-yl]-5H,6H,7H,8H,9H,10H-cyclohepta[b]indole-4-carboxamide] are at most 7.00 and at most 7.00.
As to `C=CC(=O)N1CCc2c(cccc2-c2c(F)cc(C(N)=O)c3[nH]c4c(c23)CC2(CC4)CC2)C1` [Compound 7-25, 5-(2-acryloyl-1,2,3,4-tetrahydroisoquinolin-5-yl)-6-fluoro-1,2,4,9-tetrahydrospiro[carbazole-3,1′-cyclopropane]-8-carboxamide], the negative-log IC50 (pIC50) with BTK in RAMOS B cells and against BTK was at most 7.00 in each case.
Take `C=CC(=O)N1CCC=C(c2cnc(C(N)=O)c3[nH]c4c(c23)CC(F)(F)CC4)C1` [Compound 2-9, 4-(1-acryloyl-1,2,5,6-tetrahydropyridin-3-yl)-6,6-difluoro-6,7,8,9-tetrahydro-5H-pyrido[3,4-b]indole-1-carboxamide]: the negative logarithm of the IC50 (pIC50) in the data set with BTK in RAMOS B cells (Homo sapiens, Ramos) is 7.00 to 8.00; on BTK, 7.00 to 8.00.
Regarding `CC#CC(=O)N[C@H]1C[C@H](F)CN(c2c(F)cc(C(N)=O)c3[nH]c4c(c23)CCC4)C1` [Compound 10-8, 8-((3S,5S)-3-(but-2-ynamido)-5-fluoropiperidin-1-yl)-7-fluoro-1,2,3,4-tetrahydrocyclopenta[b]indole-5-carboxamide], the negative-log IC50 (pIC50) was over 8.00 with BTK in RAMOS B cells (Homo sapiens, Ramos) and over 8.00 against BTK.
Consider `CC#CC(=O)N(C)[C@H]1CCCN(c2c(F)cc(C(N)=O)c3[nH]c4c(c23)CCC4)C1` [Compound 10-7, 8-[(3S)-3-[but-2-ynoyl(methyl)amino]-1-piperidyl]-7-fluoro-1,2,3,4-tetrahydrocyclopenta[b]indole-5-carboxamide], for which the pIC50 with BTK in RAMOS B cells (Homo sapiens, Ramos) was 7.00 to 8.00; against BTK, over 8.00.
On the same counts, the results for `C=CC(=O)N1CCc2c(cccc2-c2c(F)cc(C(N)=O)c3[nH]c4c(c23)CC2(CCOC2)CC4)C1` (centres unmarked) [Compound 7-17, 5-(2-acryloyl-1,2,3,4-tetrahydroisoquinolin-5-yl)-6-fluoro-1,2,4,4′,5′,9-hexahydro-2′H-spiro[carbazole-3,3′-furan]-8-carboxamide] are at most 7.00 and 7.00 to 8.00.
On the same counts, the results for `CC#CC(=O)N1CCC=C(c2cnc(C(N)=O)c3[nH]c4c(c23)CCCC4)C1` [Compound 2-8, 4-(1-(but-2-ynoyl)-1,2,5,6-tetrahydropyridin-3-yl)-6,7,8,9-tetrahydro-5H-pyrido[3,4-b]indole-1-carboxamide] are at most 7.00 and 7.00 to 8.00.
For `C=CC(=O)N1CCc2c(cccc2-c2ncc(C(N)=O)c3[nH]c4c(c23)CCCC4)C1` [Compound 3-1, 1-(2-acryloyl-1,2,3,4-tetrahydroisoquinolin-5-yl)-6,7,8,9-tetrahydro-5H-pyrido[4,3-b]indole-4-carboxamide], the pIC50 is over 8.00 with BTK in RAMOS B cells (Homo sapiens, Ramos) and over 8.00 against BTK.
With `C=CC(=O)N1CC[C@@H]2CCN(c3c(F)cc(C(N)=O)c4[nH]c5c(c34)CCCCC5)C[C@@H]21` [Compound 4-2, 1-((3aS,7aR)-1-acryloyloctahydro-6H-pyrrolo[2,3-c]pyridin-6-yl)-2-fluoro-5,6,7,8,9,10-hexahydrocyclohepta[b]indole-4-carboxamide], the pIC50 was at most 7.00 in the data set with BTK in RAMOS B cells (Homo sapiens, Ramos) and at most 7.00 on BTK.
In the case of `C=CC(=O)N1CCc2c(cccc2-c2c(F)cc(C(N)=O)c3[nH]c4c(c23)CC2(CCOC2)CC4)C1` (centres unmarked) [Compound 7-18, 5-(2-acryloyl-1,2,3,4-tetrahydroisoquinolin-5-yl)-6-fluoro-1,2,4,4′,5′,9-hexahydro-2′H-spiro[carbazole-3,3′-furan]-8-carboxamide], the negative logarithm of the IC50 (pIC50) was at most 7.00 with BTK in RAMOS B cells and 7.00 to 8.00 against BTK.
Regarding `CC#CC(=O)N[C@H]1C[C@H](O)CN(c2c(F)cc(C(N)=O)c3[nH]c4c(c23)CCCCC4)C1` [Compound 4-3, 1-((3S,5S)-3-(but-2-ynamido)-5-hydroxypiperidin-1-yl)-2-fluoro-5,6,7,8,9,10-hexahydrocyclohepta[b]indole-4-carboxamide], the negative-log IC50 (pIC50) with BTK in RAMOS B cells (Homo sapiens, Ramos) was 7.00 to 8.00; on BTK, 7.00 to 8.00.
For the compound `C=CC(=O)N1CCc2c(cccc2-c2c(F)cc(C(N)=O)c3[nH]c4c(c23)CC2(CC4)CC2)C1` [Compound 7-24, 5-(2-acryloyl-1,2,3,4-tetrahydroisoquinolin-5-yl)-6-fluoro-1,2,4,9-tetrahydrospiro[carbazole-3,1′-cyclopropane]-8-carboxamide], the values for the pIC50 in the data set on BTK in RAMOS B cells and against BTK were 7.00 to 8.00 and over 8.00, respectively.
On to `C=CC(=O)N1CCCC(c2ncc(C(N)=O)c3[nH]c4c(c23)CCCC4)C1` (centres unmarked) [Compound 3-3, 1-(1-acryloylpiperidin-3-yl)-6,7,8,9-tetrahydro-5H-pyrido[4,3-b]indole-4-carboxamide], for which the negative-log IC50 (pIC50) was over 8.00 in the data set on BTK in RAMOS B cells (Homo sapiens, Ramos) and over 8.00 on BTK.
In the case of `CC#CC(=O)N[C@H]1CCCN(c2c(F)cc(C(N)=O)c3[nH]c4c(c23)CCN(C)CC4)C1` [Compound 9-5, (S)-10-(3-(but-2-ynamido)piperidin-1-yl)-9-fluoro-3-methyl-1,2,3,4,5,6-hexahydroazepino[4,5-b]indole-7-carboxamide], the pIC50 with BTK in RAMOS B cells (Homo sapiens, Ramos) was 7.00 to 8.00; against BTK it was over 8.00.
On the same counts, the results for `C=CC(=O)N1CCC=C(c2ccc(C(N)=O)c3[nH]c4c(c23)CC2(CCC2)CC4)C1` [Compound 7-3, 5-(1-acryloyl-1,2,5,6-tetrahydropyridin-3-yl)-1,2,4,9-tetrahydrospiro[carbazole-3,1′-cyclobutane]-8-carboxamide] are at most 7.00 and at most 7.00.
On the same counts, the results for `CC#CC(=O)N[C@H]1C[C@H](F)CN(c2c(F)cc(C(N)=O)c3[nH]c4c(c23)CC2(CC4)CC2)C1` [Compound 7-23, 5-((3S,5S)-3-(but-2-ynamido)-5-fluoropiperidin-1-yl)-6-fluoro-1,2,4,9-tetrahydrospiro[carbazole-3,1′-cyclopropane]-8-carboxamide] are over 8.00 and over 8.00.

For the origin of these results see US20220009920A1 (GB005, Inc., priority 2020, published 2022).
